Measurements from patent publication US20210102200A1, “SMALL MOLECULE TARGETED RECRUITMENT OF A NUCLEASE TO RNA” (The Scripps Research Institute, priority 2018, published 2021).

Target: T1, RNase L (Homo sapiens, UniProt Q05823)
T1 construct: GST; made in house
T1 sequence (Q05823 1-741): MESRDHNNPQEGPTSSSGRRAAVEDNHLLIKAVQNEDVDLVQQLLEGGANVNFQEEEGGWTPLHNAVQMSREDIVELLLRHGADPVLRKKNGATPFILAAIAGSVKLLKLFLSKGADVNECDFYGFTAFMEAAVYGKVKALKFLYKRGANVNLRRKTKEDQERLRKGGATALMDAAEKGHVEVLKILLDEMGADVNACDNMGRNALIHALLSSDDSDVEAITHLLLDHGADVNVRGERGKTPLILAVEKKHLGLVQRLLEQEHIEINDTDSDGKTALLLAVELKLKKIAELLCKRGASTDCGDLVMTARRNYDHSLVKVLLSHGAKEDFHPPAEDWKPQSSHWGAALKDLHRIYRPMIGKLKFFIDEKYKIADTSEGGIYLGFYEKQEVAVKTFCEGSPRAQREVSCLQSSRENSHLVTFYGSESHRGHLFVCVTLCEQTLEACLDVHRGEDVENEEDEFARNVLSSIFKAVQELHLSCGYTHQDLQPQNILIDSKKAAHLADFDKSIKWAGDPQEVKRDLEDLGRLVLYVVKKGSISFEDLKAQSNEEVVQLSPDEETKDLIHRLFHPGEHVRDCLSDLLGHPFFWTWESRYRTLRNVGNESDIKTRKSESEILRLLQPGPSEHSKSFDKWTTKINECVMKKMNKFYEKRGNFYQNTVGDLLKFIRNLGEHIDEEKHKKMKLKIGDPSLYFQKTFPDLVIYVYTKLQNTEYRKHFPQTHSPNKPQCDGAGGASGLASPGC
Test: In vitro RNase L oligomerization, TGP-210-RL study
Type: biochemical
Conditions: in vitro cross-linking
Protocol: An aliquot of RNase L (3 μM) in 1×RNase L Buffer was supplemented with 10 mM MgCl2, fresh 7 mM β-mercaptoethanol, and 50 μM of ATP. Dilutions of 2′-5′ A4, TGP-210, or TGP-210-RL were prepared in 1×RNase L Buffer supplemented with 10 mM MgCl2, fresh 7 mM β-mercaptoethanol, and 50 μM of ATP and added to the solution of RNase L in a total volume of 17.4 μL. The RNase L/compound solutions were incubated at room temperature for 5 min and then 1 μL of 44 mM dimethyl suberimidate (Thomas Scientific) in 0.4 M triethanolamine hydrochloride, pH 8.5, was added. After incubating at room temperature for 2 h, 3.6 μL of 6×Laemmli buffer (375 mM Tris-HCl, pH 6.8, 0.03% bromophenol blue, 0.6% β-mercaptoethanol, 12% SDS, 60% glycerol) was added. After heat denaturing the samples at 95° C. for 5 min, the samples were diluted 1:90 in 1×Laemmli buffer and then resolved by SDS-PAGE. After transferring to a PVDF membrane, the membrane was blocked in 1×TBST [1×TBS with 0.1% Tween-20 (v/v)] containing 5% nonfat milk for 1 h. […] After washing the membrane five times for 5 min each with 1×TBST, protein levels were quantified by chemiluminescence with SuperSignal West Pico Chemiluminescent Substrate (Pierce Biotechnology) per the manufacturer's protocol. RNase L bands associated with monomeric or oligomeric signals were quantified using ImageJ software (National Institutes of Health).

Targapremir-210 [TGP-210]
Oligomerization of RNase L: not
